A word on the Ki: it is a dissociation constant, usually derived from enzyme kinetics or from competition with a known ligand. Low readings indicate a stronger hold on the target, high ones a looser hold on the target.

Each structure is given as a SMILES string.

In the test the target is T1, Aminopeptidase N (Sus scrofa, UniProt P15145).
T1 construct: Aminopeptidase N purified from pig's kidney; purchased Böehringer Mannheim (Meylan, France); host or cells: pig's kidney
T1 sequence (P15145 1-963): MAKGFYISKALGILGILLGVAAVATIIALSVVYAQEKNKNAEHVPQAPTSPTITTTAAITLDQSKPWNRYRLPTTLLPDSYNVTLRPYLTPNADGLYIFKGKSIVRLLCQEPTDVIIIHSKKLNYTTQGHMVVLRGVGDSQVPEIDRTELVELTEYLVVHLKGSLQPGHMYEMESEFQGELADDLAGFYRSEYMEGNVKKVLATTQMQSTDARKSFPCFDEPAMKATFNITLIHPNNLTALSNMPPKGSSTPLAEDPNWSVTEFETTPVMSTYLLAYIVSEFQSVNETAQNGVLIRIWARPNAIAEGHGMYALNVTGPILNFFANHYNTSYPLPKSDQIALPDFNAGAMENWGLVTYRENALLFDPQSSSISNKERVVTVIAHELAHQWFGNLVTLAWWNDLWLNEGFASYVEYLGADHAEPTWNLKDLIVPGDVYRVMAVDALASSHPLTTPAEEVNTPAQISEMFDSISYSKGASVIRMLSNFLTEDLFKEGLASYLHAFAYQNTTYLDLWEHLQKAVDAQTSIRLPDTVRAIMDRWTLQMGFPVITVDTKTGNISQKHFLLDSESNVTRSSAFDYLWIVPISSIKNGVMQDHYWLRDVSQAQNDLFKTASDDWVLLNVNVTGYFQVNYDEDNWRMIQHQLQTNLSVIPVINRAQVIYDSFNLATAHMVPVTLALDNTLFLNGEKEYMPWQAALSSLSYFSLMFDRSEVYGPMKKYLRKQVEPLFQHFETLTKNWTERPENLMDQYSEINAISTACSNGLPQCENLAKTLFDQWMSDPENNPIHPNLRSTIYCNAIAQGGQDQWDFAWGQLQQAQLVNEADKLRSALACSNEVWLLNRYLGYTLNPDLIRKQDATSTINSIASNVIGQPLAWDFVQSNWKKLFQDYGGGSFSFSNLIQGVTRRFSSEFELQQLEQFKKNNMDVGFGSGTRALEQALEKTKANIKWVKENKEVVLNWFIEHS
Description: In vitro inhibiting power on aminopeptidase N (Ala-Na substrate). The class given is biochemical. To be noted: APN purified from pig's kidney, 200 μM Ala-Na, 37° C., Tris HCl pH 7.4. The procedure: b)) In vitro study of the inhibiting power of the synthesised compounds on aminopeptidase N.
1°) Source of the Enzyme.
Aminopeptidase N purified from pig's kidney is marketed by Böehringer Mannheim (Meylan, France).
The APN is incubated for 10 min at 37° C. in the absence or in the presence of increasing concentrations of inhibitors in a total volume of 100 μl in Tris HCl buffer (50 mM, pH =7.4. 200 μM of Ala-Na are added and the whole thing is incubated for 30 min at 37° C. The reaction is stopped by the addition of 10 μl of CH3COO—Na 1M (pH=4.2). The absorption is measured at 400 nm and compared with that of a standard range of 2-naphthyiamine.
In the case of `CCC(C)C(NC(=O)C(S)C(N)CCP(=O)(O)O)C(=O)NC(CCC(=O)O)C(=O)O` (single isomer, unassigned) [Example 4A], the Ki was more than 5 µM. Consider `CCC(C)C(NC(=O)C(S)C(N)CCP(=O)(O)O)C(=O)NC(CCC(=O)O)C(=O)O` (single isomer, unassigned) [Example 4B], for which the inhibitory constant (Ki) is more than 5 µM. As to `CCC(C)C(NC(=O)C(S)C(N)CCS(=O)(=O)O)C(=O)NC(CCC(=O)O)C(N)=O` (single isomer, unassigned) [Example 8A], the Ki was more than 50 µM.

With `CCC(C)C(NC(=O)C(S)C(N)CCS(=O)(=O)O)C(=O)NC(CCC(=O)O)C(N)=O` (single isomer, unassigned) [Example 8B], the Ki was more than 50 µM. Turning to `CC[C@H](C)[C@H](NC(=O)[C@@H](S)[C@H](N)CCC(=O)O)C(=O)N1CC[C@@H](C(=O)O)[C@H]1C(=O)O` [Example 3A, [[(2S ,3R)-3-amino-5-carboxy-2-mercapto]pentanoyl]-LIIe-L.(3R)(3-COOH)Pro-OH], the Ki was more than 5 µM. The same measure for `CC[C@H](C)[C@H](NC(=O)[C@H](S)[C@H](N)CCC(=O)O)C(=O)N1CC[C@@H](C(=O)O)[C@H]1C(=O)O` [Example 3B, [[(2R,3R), 3-amino-5-carboxy-2-mercapto]-pentanoyl]-L.IIe-L.(3R)(3-COOH)Pro-OH]: more than 5 µM.

The values above are taken from patent US20020061840A1, “Tripeptide compounds useful as selective inhibitors of aminopeptidase A and corresponding pharmaceutical compositions” (priority 2000, published 2002).
